In test [1] the test system is primary AML samples (lineage-depleted umbilical cord blood cells as healthy counterpart). Kind of test: Clonogenicity assay. In kind it is cell-based, human. The procedure:
(§1) 1,000 cells of AML cell lines or 50,000 primary cells (both AML and lin-depleted UCB) were treated at the indicated concentration for 18 h, and cultured in 1 mL of MethoCult H4034 Optimum (StemCell Technologies, Vancouver, BC, Canada).
(§2) Colonies were screened based on morphology and cellularity at day 7 (cell lines) […]
(§3) Calcium mobilization assay
1 x 10^6 cells per mL were loaded for 30’ at 37 °C with the Fura-2-AM probe (Thermo Fisher) at a final 2 µM concentration in pre-warmed calcium- and magnesium-free Hanks BSA solution. Cells were then washed and resuspended in Hanks BSA solution with calcium and magnesium at 3 x 10^5 cells per mL. In parallel, 50µL of drugs in Hanks BSA solution with calcium and magnesium were added to 96-well black wall clear bottom plates and background fluorescence was read at Ex340/Em508 and Ex380/Em508. Cells were then added to the plate (50µL/well) and fluorescence was acquired at indicated timepoints using a Synergy HT Multi-Detection Microplate Reader (BioTek). For the analysis, all values were subtracted their corresponding background fluorescence, and the ratio 340/380 was calculated. Finally, ratios were normalized to vehicle-treated […]
(§4) Semi-Quantitative Real Time PCR

Test [2] has as its system AML cell lines. Briefly: Lysosomal mass with Lysotracker probe. The settings on record: 10 µM, 24 h. In kind it is cell-based. The protocol: Lysosomal mass was determined using Lysotracker DeepRed (Thermo Fisher, Waltham, MA, USA), and analyzed with cytometry and microscopy, as explained previously. The lysosomal activity assays were performed following the guidance of the study that first introduced the Lysosomal Metriq probe. AML cell lines were lentivirally transduced with the pCW57.1 Lysosomal-METRIQ plasmid (Addgene #135401), and selected with puromycin (2 µg/mL). Cells were treated for 3 consecutive days with 3 µg/mL doxycycline (Sigma Aldrich, St. Louis, MO, USA), incubated with the compounds of interest for 24 h, and analyzed in the flow cytometer. Lysosomal activity was measured as the ratio between red fluorescence (acting as an internal control) and green fluorescence (located in the lysosomes and degraded to different degrees depending on the activity of the lysosomal compartment). For the Galectin 3 puncta assay, AML cell lines were lentivirally transduced with the mAG-Gal3 plasmid (Addgene #62734). Treatments and analysis were performed as described elsewhere. Then, 2 × 10^5 cells per ml were pulsed with dextran-rhodamine (0.25 mg/mL) for 24 h, chased for 2 h, treated with EDK compounds at the indicated concentrations for 48 h, attached to poly-L-lysine (50 μg/mL)-coated chambered coverslips (μ-Slide 8 well, Ibidi), imaged in a Zeiss LSM880 microscope, and analyzed with Fiji software.

Test [3] concerns MonoMac-1. Kind of test: 7AAD and annexin-V staining, flow cytometry. Format: cell-based. The settings on record: 10 µM, 24 h, representative plot. The procedure:
(§5) Seahorse studies were performed using the Agilent Seahorse XF Real-Time ATP Rate Assay Kit. Briefly, MonoMac1 and HL60 cells were suspended in complete medium at a concentration of 5 × 10^5 cells per ml and treated with EDK-87/EDK-88 with the indicated compounds for 18 h. Cells were washed and suspended in Seahorse medium (Seahorse XF medium with 2 mM glutamine, 10 mM glucose, 2 mM pyruvate) at a concentration of 1.4 × 10^6 (Mono Mac1) and 2.4 × 10^6 (HL60) cells per mL; 50 μL per well were seeded in 96-well Seahorse plates precoated with polylysine, centrifuged, and left to adhere for 20 min at 37 °C before adding prewarmed Seahorse medium to a final volume of 180 μL per well. Basal OCR and ECAR were measured, and the ATP rate assay was performed with the sequential injection of 1.5 μM oligomycin and 0.5 μM rotenone/antimycin A. A detailed description of this protocol was provided by the manufacturers. Mitochondrial ROS was quantified using the MitoSOX Red Mitochondrial Superoxide Indicator (Thermo Fischer Scientific, Waltham, MA, USA), as previously described. The activation of executive caspases was determined using CaspaseGlo® 3/7 Assay (Promega), following the manufacturer’s recommendations. The detection of Annexin-V staining was also described previously.

Test [4] has as its system KG-1. Kind of test: 7AAD and annexin-V staining, flow cytometry. Format: cell-based. Particulars: 10 µM, 24 h, representative plot. The procedure: as §5
Test [5] has as its system intracellular calcium in HL60 cells. Briefly: Calcium mobilization assay (Fura2 probe). In kind it is cell-based. Particulars: 10 µM EDK-87/EDK-88, 50 µM chloroquine. The protocol:
as §1, §2, §3
1 x 10^6 cells per mL were loaded for 30’ at 37 °C with the Fura-2-AM probe (Thermo Fisher) at a final 2 µM concentration in pre-warmed calcium- and magnesium-free Hanks BSA solution. Cells were then washed and resuspended in Hanks BSA solution with calcium and magnesium at 3 x 10^5 cells per mL. In parallel, 50µL of drugs in Hanks BSA solution with calcium and magnesium were added to 96-well black wall clear bottom plates and background fluorescence […]
Cells were then added to the plate
(50µL/well) and fluorescence was acquired at indicated timepoints using a Synergy HT Multi-Detection Microplate Reader (BioTek). For the analysis, all values were subtracted their corresponding background fluorescence, and the ratio 340/380 was calculated. Finally, ratios were normalized to vehicle-treated […]
as §4

Consider `CN1CCC(=C2c3ccccc3-c3c2sc2ccccc32)CC1` [EDK-87], for which the “clonogenicity, effect in AML” value in test [1] (primary AML samples) is on record as 77.9% ± 9.2. For the same compound, in test [1] (primary AML vs lineage-depleted umbilical cord blood), the “therapeutic window (clonogenicity)” value stood at 3.2. In addition, the “lysosomal mass (Lysotracker)” value in test [2] is listed as “expansion of the lysosomal mass”. In addition, in test [3], the “Q1 of 7AAD/annexin V plot” value worked out at 2.96, the “Q2 of 7AAD/annexin V plot” value is reported as 9.41, the “Q3 of 7AAD/annexin V plot” value was found to be 21.7 and the “Q4 of 7AAD/annexin V plot” value was 65.9. Besides, in test [4], the “Q1 of 7AAD/annexin V plot” value is on record as 0.61, the “Q2 of 7AAD/annexin V plot” value was found to be 10.0, the “Q3 of 7AAD/annexin V plot” value worked out at 50.3 and the “Q4 of 7AAD/annexin V plot” value is 39.1. In test [5], the intracellular calcium mobilization result is listed as “few changes in calcium release”.

(Values after PMC10047683, “A Novel Family of Lysosomotropic Tetracyclic Compounds for Treating Leukemia” (Cancers, 2023).)
